# The supplement of paper PMC10307832
# Key:
# Assay in all cases: relative viability (nuclei count vs DMSO), 5 days (fraction); higher = more cells survive
# [1] = tested on: ABC-1
# In short: (§1)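 Lung cancer cell lines in 1536-well plates got either a single drug or a fixed anchor-drug dose together with five library-drug doses (not always all listed) in √10 steps, by pin tool, on the day after seeding. Nuclei were counted after 5 days, and relative viability is the treated-to-vehicle ratio of nuclei counts. Values are medians of duplicate plates.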
# [2] = tested on: CAL-12T
# In short: as §1
# [3] = tested on: COR-L 105
# In short: as §1
# [4] = tested on: ChaGo-K-1
# In short: as §1
# [5] = tested on: EMC-BAC-2
# In short: as §1
# [6] = tested on: EPLC-272H
# In short: as §1
# [7] = tested on: HCC-15
# In short: as §1
# [8] = tested on: HCC-78
# In short: as §1
# [9] = tested on: HOP-62
# In short: as §1
# [10] = tested on: LXF-289
# In short: as §1
# [11] = tested on: NCI-H1666
# In short: as §1
# [12] = tested on: NCI-H1755
# In short: as §1
# [13] = tested on: NCI-H1915
# In short: as §1
# [14] = tested on: NCI-H1975
# In short: as §1
# [15] = tested on: NCI-H1993
# In short: as §1
# [16] = tested on: NCI-H2023
# In short: as §1
# [17] = tested on: NCI-H2085
# In short: as §1
# [18] = tested on: NCI-H2126
# In short: as §1
# [19] = tested on: NCI-H3122
# In short: as §1
# [20] = tested on: NCI-H322M
# In short: as §1
# [21] = tested on: NCI-H358
# In short: as §1
# [22] = tested on: NCI-H441
# In short: as §1
# [23] = tested on: UMC-11
# In short: as §1
compound,measurement,setting,value
Oc1nc(-c2ccc(C(F)(F)F)cc2)nc2c1CSCC2 [XAV939] + COc1cc2c(Oc3ccc(NC(=O)C4(C(=O)Nc5ccc(F)cc5)CC4)cc3F)ccnc2cc1OCCCN1CCOCC1 [Foretinib] (partner 0.25 µM),relative viability,[1]; first compound 0.08 µM,1.16
same,relative viability,[1]; first compound 0.253 µM,0.732
same,relative viability,[1]; first compound 0.8 µM,0.935
same,relative viability,[1]; first compound 2.53 µM,0.635
same,relative viability,[2]; first compound 0.08 µM,1.06
same,relative viability,[2]; first compound 0.253 µM,1.06
same,relative viability,[2]; first compound 0.8 µM,1.15
same,relative viability,[2]; first compound 2.53 µM,1.09
same,relative viability,[3]; first compound 0.08 µM,1.17
same,relative viability,[3]; first compound 0.253 µM,1.06
same,relative viability,[3]; first compound 0.8 µM,1.14
same,relative viability,[3]; first compound 2.53 µM,0.964
same,relative viability,[4]; first compound 0.08 µM,0.874
same,relative viability,[4]; first compound 0.253 µM,1.01
same,relative viability,[4]; first compound 0.8 µM,0.812
same,relative viability,[4]; first compound 2.53 µM,0.773
same,relative viability,[5]; first compound 0.08 µM,1.05
same,relative viability,[5]; first compound 0.253 µM,0.747
same,relative viability,[5]; first compound 0.8 µM,0.848
same,relative viability,[5]; first compound 2.53 µM,0.553
same,relative viability,[6]; first compound 0.08 µM,0.808
same,relative viability,[6]; first compound 0.253 µM,0.603
same,relative viability,[6]; first compound 0.8 µM,0.672
same,relative viability,[6]; first compound 2.53 µM,0.548
same,relative viability,[7]; first compound 0.08 µM,1.2
same,relative viability,[7]; first compound 0.253 µM,0.984
same,relative viability,[7]; first compound 0.8 µM,1.05
same,relative viability,[7]; first compound 2.53 µM,0.988
same,relative viability,[8]; first compound 0.08 µM,0.591
same,relative viability,[8]; first compound 0.253 µM,0.552
same,relative viability,[8]; first compound 0.8 µM,0.552
same,relative viability,[8]; first compound 2.53 µM,0.506
same,relative viability,[9]; first compound 0.08 µM,1.23
same,relative viability,[9]; first compound 0.253 µM,1.04
same,relative viability,[9]; first compound 0.8 µM,0.996
same,relative viability,[9]; first compound 2.53 µM,0.943
same,relative viability,[10]; first compound 0.08 µM,0.985
same,relative viability,[10]; first compound 0.253 µM,0.95
same,relative viability,[10]; first compound 0.8 µM,0.967
same,relative viability,[10]; first compound 2.53 µM,0.988
same,relative viability,[11]; first compound 0.08 µM,0.99
same,relative viability,[11]; first compound 0.253 µM,0.919
same,relative viability,[11]; first compound 0.8 µM,0.908
same,relative viability,[11]; first compound 2.53 µM,0.952
same,relative viability,[12]; first compound 0.08 µM,0.891
same,relative viability,[12]; first compound 0.253 µM,0.787
same,relative viability,[12]; first compound 0.8 µM,0.815
same,relative viability,[12]; first compound 2.53 µM,0.809
same,relative viability,[13]; first compound 0.08 µM,1.18
same,relative viability,[13]; first compound 0.253 µM,1.11
same,relative viability,[13]; first compound 0.8 µM,1.08
same,relative viability,[13]; first compound 2.53 µM,1.03
same,relative viability,[14]; first compound 0.08 µM,0.858
same,relative viability,[14]; first compound 0.253 µM,0.696
same,relative viability,[14]; first compound 0.8 µM,0.691
same,relative viability,[14]; first compound 2.53 µM,0.756
same,relative viability,[15]; first compound 0.08 µM,0.753
same,relative viability,[15]; first compound 0.253 µM,0.7
same,relative viability,[15]; first compound 0.8 µM,0.688
same,relative viability,[15]; first compound 2.53 µM,0.65
same,relative viability,[16]; first compound 0.08 µM,0.847
same,relative viability,[16]; first compound 0.253 µM,0.756
same,relative viability,[16]; first compound 0.8 µM,0.659
same,relative viability,[16]; first compound 2.53 µM,0.514
same,relative viability,[17]; first compound 0.08 µM,1.06
same,relative viability,[17]; first compound 0.253 µM,1.11
same,relative viability,[17]; first compound 0.8 µM,0.772
same,relative viability,[17]; first compound 2.53 µM,0.893
same,relative viability,[18]; first compound 0.08 µM,1.1
same,relative viability,[18]; first compound 0.253 µM,0.989
same,relative viability,[18]; first compound 0.8 µM,1.17
same,relative viability,[18]; first compound 2.53 µM,0.725
same,relative viability,[19]; first compound 0.08 µM,0.926
same,relative viability,[19]; first compound 0.253 µM,0.918
same,relative viability,[19]; first compound 0.8 µM,0.942
same,relative viability,[19]; first compound 2.53 µM,0.909
same,relative viability,[20]; first compound 0.08 µM,1.11
same,relative viability,[20]; first compound 0.253 µM,0.921
same,relative viability,[20]; first compound 0.8 µM,0.778
same,relative viability,[20]; first compound 2.53 µM,0.609
same,relative viability,[21]; first compound 0.08 µM,0.722
same,relative viability,[21]; first compound 0.253 µM,0.596
same,relative viability,[21]; first compound 0.8 µM,0.622
same,relative viability,[21]; first compound 2.53 µM,0.6
same,relative viability,[22]; first compound 0.08 µM,1.15
same,relative viability,[22]; first compound 0.253 µM,0.891
same,relative viability,[22]; first compound 0.8 µM,1.19
same,relative viability,[22]; first compound 2.53 µM,1.02
same,relative viability,[23]; first compound 0.08 µM,1.13
same,relative viability,[23]; first compound 0.253 µM,0.873
same,relative viability,[23]; first compound 0.8 µM,0.978
same,relative viability,[23]; first compound 2.53 µM,0.8
